Reference: patent publication US20180085356A1, “METHOD OF TREATING DISEASE CHARACTERISED BY PROTEIN AGGREGATE DEPOSITION IN NEURONAL CELLS” (CHRONOS THERAPEUTICS LIMITED, priority 2013, published 2018)

Assays:
S. cerevisiae = assay: Chronological lifespan of ageing stationary phase yeast culture (outgrowth viability); type: cell-based, Saccharomyces cerevisiae; conditions: 40 μM tacrolimus
Description: Analysis of chronological lifespan in yeast involves assessment of the viability of a stationary phase culture over time. Yeast are stored in glycerol stocks at −80° C., inoculated into YPD (Yeast extract-Peptone-Dextrose) and incubated overnight. From this culture, a 1/25 dilution is prepared to produce an ageing culture that is incubated at 30° C. throughout the duration of the experiment. The first 24 hours of yeast growth are assessed in Complete Synthetic Media (CSM) to confirm that the culture has reached stationary phase. After 24 hours, when the culture has completed the exponential growth phase and has entered stationary phase, its viability can then be assessed. Viability is measured by taking a 5 μl sample of the ageing culture and diluting this into a total volume of 150 μlYPD. Growth of this “outgrowth culture” is measured using the Bioscreen-C MBR machine that both incubates the plates and measures optical turbidity every 20 minutes. Comparison of the viability curves of outgrowth cultures taken over several successive days can be used to observe the reduction in viability of the stationary phase culture over time. Specifically, the interval between the time taken for the outgrowth culture to reach OD600=0.6 on day 1, and the time taken to reach OD600=0.6 on a later day (for example day 7) can be used as a measure of the “ageing rate” of the culture. […]

[1] = tested on: C. elegans expressing mutant human SOD-1 (127X) in the body wall muscle; assay: C. elegans lifespan assay, mutant SOD-1 strain; type: in vivo, Caenorhabditis elegans
Description: (§1) Tacrolimus was tested in a number of disease models using the nematode worm, Caenorhabditis elegans, in which aggregate-prone proteins associated with neurodegenerative diseases are expressed in certain cell types. The effect of tacrolimus was determined by measuring the lifespan of worms in the presence and absence of tacrolimus, using the following general methodology. All of the worms tested using these assays also contained, in addition to the transgene expressing the disease-related protein, a mutation in the bus-5 gene which confers drug-sensitivity.
(§2) C. elegans cultures were synchronised by incubating an asynchronous culture in basic sodium hypochlorite solution to kill everything but the bleach-resistant mature eggs. […] From this point on, each ageing population was inspected at regular intervals (e.g. daily) and viability assessed by counting the number of dead worms.
(§3) The cumulative number of dead worms for each population was used to generate a survival/viability plot to determine chronological lifespan (CLS). Survival was analysed using the Kaplan-Meier log-rank survival analysis method, using the Online Application for Survival (OASIS; see http://sbi.postech.ac.kr/oasis). […]
The effect of tacrolimus on C. elegans expressing wild-type or mutant human SOD-1 in the body wall muscle was determined. […]

[2] = tested on: C. elegans expressing 35 polyglutamine tract fused to YFP (Q35) in the body wall muscle; assay: C. elegans lifespan assay, polyglutamine Q35 strain; type: in vivo, Caenorhabditis elegans; conditions: p<0.05 vs. Q35 DMSO
Description: as §1
as §2, with “eggs. The eggs were added on to agar plates and then allowed to hatch and develop in the presence of the test compound (or vehicle) and bacterial food source.” for “eggs.”
as §3

IL-6 = assay: Microglial inflammatory cytokine production by qPCR (LPS challenge); type: cell-based, rat; conditions: 100 ng/ml LPS overnight
Description: To investigate the effect of tacrolimus on microglial function, rat microglia were isolated as follows. A primary glial co-culture was isolated from P2 Sprague Dawley rat pups. The cells were cultured until confluency and then the microglia were isolated from the confluent glial cells through mechanical shaking. The isolated microglial cells were then subjected to inflammatory challenge by overnight exposure to 100 ng/ml lipopolysaccharide (LPS), in the presence or absence of tacrolimus. Glial cell activity was monitored by determining cell viability (Cell Counting Kit-8), the presence of reactive oxygen species (by quantitative fluorescence measurement in the supernatant/cell lysate), microvesicle shedding (by monitoring vesicle formation in cells loaded with Calcein-AM and then challenged with 1 mM ATP) and inflammatory cytokine production (by qPCR).

[3] = in vivo
Description: Pharmacokinetic analysis was carried out by the Applicant. […] Therefore, even accounting for species differences in pharmacokinetics, preferred oral doses of tacrolimus in humans for the treatment of ALS would be expected to be below 1.3 mg/day and are likely to be below 0.55 mg/day.
Based on pharmacokinetic analysis, an oral tacrolimus dose of 2 mg/kg/day in the mouse is believed to correspond to a human oral dose of about 0.33-0.44 mg/day for a 70 kg person.

Structure (SMILES): C=CC[C@@H]1/C=C(\C)C[C@H](C)C[C@H](OC)[C@H]2O[C@@](O)(C(=O)C(=O)N3CCCC[C@H]3C(=O)O[C@H](/C(C)=C/[C@@H]3CC[C@@H](O)[C@H](OC)C3)[C@H](C)[C@@H](O)CC1=O)[C@H](C)C[C@@H]2OC [tacrolimus, Tacrolimus]
- rate of ageing / chronological lifespan of stationary phase yeast culture (S. cerevisiae): significantly delays the rate of ageing and extends the chronological lifespan
- interval between the x-intercepts at OD600=0.6 on days 1 and 9 (S. cerevisiae; control without tacrolimus 287 minutes): 63 min
- increase in lifespan when bec-1 knocked down by RNAi ([1]; bec-1 RNAi, p>0.05 vs. bec-1 RNAi DMSO): virtually abolished
- lifespan ([1]; p<0.05 DMSO vs. Tacrolimus): significant increase in lifespan
- lifespan [2]: significantly increases lifespan
- LPS induction of IL-6 expression (IL-6): significantly reduced
- human oral dose corresponding to oral dose of 2 mg/kg/day in the mouse [3]: 0.44-0.33
